pIC50: −log10 of the molar value.
How the values were obtained:
HDAC1 = target: T1, HDAC1 (Homo sapiens, UniProt Q13547); assay: HDAC enzyme activity inhibition (in vitro), HDAC1 Fluorimetric Drug Discovery Assay Kit; assay type: biochemical; conditions: samples at 100, 1000 and 10000 nM; 37° C. 60 minutes; fluorescence Ex 390, Em 460; read-out: HDAC1 IC50
T1 construct: purchased Enzolifesciences BML-AK511
Summary of the method: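 Compound incubated with enzyme 60 min at 37° C, then developer 30 min at 37° C; fluorescence read at Ex 390/Em 460. HDAC1 via fluorimetric kit, compounds at 100, 1000 and 10000 nM; HDAC6 human recombinant, compounds at 0.1, 1, 10, 100 and 1000 nM.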

HDAC6 human recombinant = target: T2, HDAC6 human recombinant (Homo sapiens, UniProt Q9UBN7); assay: HDAC enzyme activity inhibition (in vitro), HDAC6 assay; assay type: biochemical; conditions: samples at 0.1, 1, 10, 100 and 1000 nM; 37° C. 60 minutes; fluorescence Ex 390, Em 460; read-out: HDAC6 IC50
T2 construct: purchased Calbiochem 382180
T2 sequence (Q9UBN7 1-1215): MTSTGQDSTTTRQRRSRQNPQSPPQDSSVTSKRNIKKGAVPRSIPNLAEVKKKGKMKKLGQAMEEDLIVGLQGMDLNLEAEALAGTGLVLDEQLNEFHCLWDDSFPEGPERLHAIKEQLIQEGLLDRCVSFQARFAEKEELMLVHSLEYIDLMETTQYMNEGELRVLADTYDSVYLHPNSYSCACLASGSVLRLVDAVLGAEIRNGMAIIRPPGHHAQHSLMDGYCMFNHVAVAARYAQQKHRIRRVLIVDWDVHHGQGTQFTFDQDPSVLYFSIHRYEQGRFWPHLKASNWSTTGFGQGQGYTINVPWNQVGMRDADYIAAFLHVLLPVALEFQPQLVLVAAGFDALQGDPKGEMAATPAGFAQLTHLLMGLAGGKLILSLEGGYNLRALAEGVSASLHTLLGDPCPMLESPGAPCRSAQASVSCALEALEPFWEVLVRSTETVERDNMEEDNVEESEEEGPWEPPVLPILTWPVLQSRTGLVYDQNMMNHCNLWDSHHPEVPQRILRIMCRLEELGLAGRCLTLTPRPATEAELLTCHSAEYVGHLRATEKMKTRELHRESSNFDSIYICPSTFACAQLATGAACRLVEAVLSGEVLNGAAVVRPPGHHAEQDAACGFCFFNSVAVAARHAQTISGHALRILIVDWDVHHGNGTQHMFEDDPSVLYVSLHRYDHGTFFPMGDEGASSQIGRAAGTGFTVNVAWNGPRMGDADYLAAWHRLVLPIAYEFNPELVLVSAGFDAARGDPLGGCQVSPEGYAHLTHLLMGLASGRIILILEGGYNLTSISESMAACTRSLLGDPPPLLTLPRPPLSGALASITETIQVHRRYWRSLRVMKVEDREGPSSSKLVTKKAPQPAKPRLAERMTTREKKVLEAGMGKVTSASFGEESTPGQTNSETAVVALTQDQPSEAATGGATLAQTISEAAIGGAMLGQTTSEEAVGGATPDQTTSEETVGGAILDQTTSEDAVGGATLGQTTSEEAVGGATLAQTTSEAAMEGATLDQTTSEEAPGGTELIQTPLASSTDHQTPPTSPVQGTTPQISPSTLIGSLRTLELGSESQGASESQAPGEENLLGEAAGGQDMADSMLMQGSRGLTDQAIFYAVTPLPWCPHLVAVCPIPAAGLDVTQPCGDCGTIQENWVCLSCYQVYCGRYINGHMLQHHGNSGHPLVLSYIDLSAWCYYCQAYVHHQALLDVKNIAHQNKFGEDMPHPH
Summary of the method: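 HDAC6 human recombinant enzyme with fluorimetric substrate; […]. Reaction 60 min at 37° C, then developer 30 min at 37° C; fluorescence read at Ex 390/Em 460.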

T1 sequence (Q13547 whole entry): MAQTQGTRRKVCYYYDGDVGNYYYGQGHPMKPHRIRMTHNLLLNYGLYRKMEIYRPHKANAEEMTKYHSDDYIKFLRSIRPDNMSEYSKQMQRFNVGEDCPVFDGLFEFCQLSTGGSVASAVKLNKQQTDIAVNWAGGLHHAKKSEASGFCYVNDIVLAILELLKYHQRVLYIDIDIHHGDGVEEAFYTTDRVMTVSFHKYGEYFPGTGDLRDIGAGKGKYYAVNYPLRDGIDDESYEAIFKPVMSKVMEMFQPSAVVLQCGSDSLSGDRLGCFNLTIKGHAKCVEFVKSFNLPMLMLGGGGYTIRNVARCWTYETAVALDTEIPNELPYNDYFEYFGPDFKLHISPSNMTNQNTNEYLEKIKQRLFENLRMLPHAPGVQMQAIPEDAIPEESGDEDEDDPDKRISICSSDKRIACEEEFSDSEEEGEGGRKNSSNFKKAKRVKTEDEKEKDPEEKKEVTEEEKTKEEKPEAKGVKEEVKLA

Compound	pIC50 (HDAC1)	pIC50 (HDAC6 human recombinant)
CN1CCC(c2ccc3c(c2)n(C2CCN(C)CC2)c(=O)n3Cc2ccc(-c3nnc(C(F)F)o3)cc2F)CC1 [Compound 156, 1-(4-(5-(difluoromethyl)-1,3,4-oxadiazole-2-yl)-2-fluorobenzyl)-3,5-bis(1-methylpiperidine-4-yl)-1,3-dihydro-2H-benzo[d]imidazole-2-one]	< 5.00	6.99
CC(=O)N1CCC(c2ccc3c(c2)n(C2CCN(C)CC2)c(=O)n3Cc2ccc(-c3nnc(C(F)F)o3)cc2F)CC1 [Compound 157, 5-(1-acetylpiperidine-4-yl)-1-(4-(5-(difluoromethyl)-1,3,4-oxadiazole-2-yl)-2-fluorobenzyl)-3-(1-methylpiperidine-4-yl)-1,3-dihydro-2H-benzo[d]imidazole-2-one]	< 5.00	6.80
CN1CCC(n2c(=O)n(Cc3ccc(-c4nnc(C(F)F)o4)cc3F)c3ccc(C4CCN(S(C)(=O)=O)CC4)cc32)CC1 [Compound 158, 1-(4-(5-(difluoromethyl)-1,3,4-oxadiazole-2-yl)-2-fluorobenzyl)-3-(1-methylpiperidine-4-yl)-5-(1-(methylsulfonyl)piperidine-4-yl)-1,3-dihydro-2H-benzo[d]imidazole-2-one]	< 5.00	6.86
CN1CCC(n2c(=O)n(Cc3ccc(-c4nnc(C(F)F)o4)cc3F)c3ccc(-c4cccc(F)c4)cc32)CC1 [Compound 159, 1-(4-(5-(difluoromethyl)-1,3,4-oxadiazole-2-yl)-2-fluorobenzyl)-5-(3-fluorophenyl)-3-(1-methylpiperidine-4-yl)-1,3-dihydro-2H-benzo[d]imidazole-2-one]	< 5.00	7.15
CN1CCC(n2c(=O)n(Cc3ccc(-c4nnc(C(F)F)o4)cc3F)c3ccc(-c4ccccc4F)cc32)CC1 [Compound 160, 1-(4-(5-(difluoromethyl)-1,3,4-oxadiazole-2-yl)-2-fluorobenzyl)-5-(2-fluorophenyl)-3-(1-methylpiperidine-4-yl)-1,3-dihydro-2H-benzo[d]imidazole-2-one]	< 5.00	7.04

The next lines start with the values.

pIC50 (HDAC1)	pIC50 (HDAC6 human recombinant)	Compound
< 5.00	7.40	CN1CCC(n2c(=O)n(Cc3ccc(-c4nnc(C(F)F)o4)cc3F)c3ccc(-c4ccncc4)cc32)CC1 [Compound 161, 1-(4-(5-(difluoromethyl)-1,3,4-oxadiazole-2-yl)-2-fluorobenzyl)-3-(1-methylpiperidine-4-yl)-5-(pyridine-4-yl)-1,3-dihydro-2H-benzo[d]imidazole-2-one]
< 5.00	7.41	CN1CCC(n2c(=O)n(Cc3ccc(-c4nnc(C(F)F)o4)cc3F)c3ccc(-c4ccoc4)cc32)CC1 [Compound 162, 1-(4-(5-(difluoromethyl)-1,3,4-oxadiazole-2-yl)-2-fluorobenzyl)-5-(furan-3-yl)-3-(1-methylpiperidine-4-yl)-1,3-dihydro-2H-benzo[d]imidazole-2-one]
< 5.00	7.04	Cc1ccc(-c2ccc3c(c2)n(C2CCN(C)CC2)c(=O)n3Cc2ccc(-c3nnc(C(F)F)o3)cc2F)o1 [Compound 163, 1-(4-(5-(difluoromethyl)-1,3,4-oxadiazole-2-yl)-2-fluorobenzyl)-5-(5-methylfuran-2-yl)-3-(1-methylpiperidine-4-yl)-1,3-dihydro-2H-benzo[d]imidazole-2-one]
< 5.00	7.21	COc1ccc(-c2ccc3c(c2)n(C2CCN(C)CC2)c(=O)n3Cc2ccc(-c3nnc(C(F)F)o3)cc2F)cn1 [Compound 164, 1-(4-(5-(difluoromethyl)-1,3,4-oxadiazole-2-yl)-2-fluorobenzyl)-5-(6-methoxypyridine-3-yl)-3-(1-methylpiperidine-4-yl)-1,3-dihydro-2H-benzo[d]imidazole-2-one]
< 5.00	8.00	Cn1c(=O)n(Cc2ccc(-c3nnc(C(F)F)o3)cn2)c2cc(F)c(-c3cccnc3)cc21 [Compound 165, 1-((5-(5-(difluoromethyl)-1,3,4-oxadiazole-2-yl)pyridine-2-yl)methyl)-6-fluoro-3-methy 1-5-(pyridine-3-yl)-1,3-dihydro-2H-benzo[d]imidazole-2-one]
